# Reference: US20060223877A1, “Methods of treatment utilizing certain melatonin derivatives” (priority 2005, published 2006)
# What was measured:
# middle-aged male rats = settings: cited from earlier work
# [1] = test system: patients with a diagnosis of migraine with or without aura; settings: daily treatment; Peres et al., 2004; cited from earlier work
# [2] = test system: subjects fed a high-fat diet; settings: daily administration, Pruet-Marcassus et al., 2003; cited from earlier work
# [3] = test system: patients with a diagnosis of fibromyalgia; settings: cited from earlier work
# TBI rats = assay: traumatic brain injury, controlled cortical impact model; assay type: in vivo; settings: 10 mg/kg intraperitoneally, two doses (15 minutes and 24 hours after TBI), Day 7 morphometry, P=0.01, FIG. 3
# From the text: Subjects were male Sprague-Dawley rats weighing 250-300 g housed in a temperature- and humidity-controlled vivarium on a 12:12 hr light:dark cycle with food and water available ad libitum. Animals were subjected to TBI using controlled cortical impact model. (Sullivan et al. 2000a). Animals were anesthetized and their brain cortex exposed. Employing a pneumatically-controlled impactor rod with a 5 mm diameter beveled tip, one of the cortices was compressed at 3.5 m/sec to a predetermined depth of 1.5 mm, resulting in TBI. The other cortex was not injured and left intact. Following the experimental TBI protocol, the animals were randomly divided into two groups and were either treated with vehicle or 10 mg/kg of β-methyl-6-chloromelatonin intraperitoneally (two doses; first dose 15 minutes after TBI and the second 24 hours later). The animals were allowed to recover for 168 hours (seven days). On Day 7, quantitative morphometric image analysis was employed to assess cortical tissue damage. Quantitative morphometry is considered to be the “gold standard” for assessing neuroprotectant drug efficacy in TBI (Sullivan et al., 1999; Sullivan et al., 2000a; Sullivan et al., 2000b).
# humans = settings: 20 mg to 100 mg per day, Zemlan et al., 2005; cited from earlier work
# IHI mice = assay: ischemia-hypoxia injury (IHI) model of cerebrovascular disease; assay type: in vivo; settings: 10 and 100 mg/kg intraperitoneally 30 minutes before and 30 minutes after hypoxia, Day 3, dose-dependent, FIG. 6
# Method: Subjects were 8-12 week old adult male C57B116 mice housed in a temperature- and humidity-controlled vivarium on a 12:12 hr light:dark cycle with food and water available ad libitum. The mice were subjected to ischemia-hypoxia injury (IHI). The injury was rendered by permanently occluding the right common carotid artery and delivering hypoxic gas (7.5% O2) for 30 minutes employing a gas mask under anesthesia. The animal's body temperature was maintained at 36.5-37.5° C. throughout the experiment. For drug efficacy studies, β-methyl-6-chloro-melatonin was administered intraperitoneally 30 minutes before and 30 minutes after hypoxia at doses of 0 (vehicle only), 10 and 100 mg/kg. On Day 3 after injury, quantitative morphometric image analysis was employed to assess infarction size in Nissl-stained brain sections isolated from the animals. β-methyl-6-chloromelatonin administration caused a 33-40% reduction in brain infarct size in IHI mice compared to vehicle-treated IHI mice (FIG. 6). The protection conferred by β-methyl-6-chloromelatonin was dose-dependent.
# male Sprague-Dawley rats = assay: open field test; assay type: in vivo; settings: for rearing behavior compared to vehicle controls: FIG. 1; for immobility compared to controls: FIG. 2
# Method: Subjects were male Sprague-Dawley rats weighing 250-300 g housed in a temperature- and humidity-controlled vivarium on a 12:12 hr light:dark cycle with food and water available ad libitum. Behavioral testing occurred 2 hrs after lights out. […] All treatments were administered to an animal once (no repeat drug administration) with 8 animals per treatment. The open filed testing procedure has been previously described (Herman et al., 2003). Briefly, the open field apparatus is a 36×36-inch white PLEXIGLAS® enclosure, divided into 36 squares of equal size. Animals are placed into the apparatus and allowed to explore the environment for 5 min. Sessions are videotaped and scored for behavior by an investigator blinded to the treatment condition. Behavior is scored for the two primary outcome measures: rearing and immobility, as well as grooming; and secondary measures of sedation: total mobility and quadrant crossing.
# [4] = test system: TNF-α stimulated EOC-20 cells; assay: nitrite and PGE2 in TNF-α stimulated EOC-20 microglial cells; assay type: cell-based; settings: 20 ng/ml TNF-α-stimulated EOC-20 cells, dose-dependent manner
# From the text: The compounds of the present invention are effective in treating neurodegenerative diseases, such as amyotrophic lateral sclerosis (ALS), Alzheimer's disease (AD), Huntington's disease (HD) and Parkinson's disease (PD).
# The experiments consisted of treating TNF-α stimulated EOC-20 cells with increasing concentrations of β-methyl-6-chloromelatonin followed by measuring neuroinflammation-associated markers. Neuroinflammation activates microglia to produce proinflammatory cytokines, reactive oxygen species (ROS) and reactive nitrogen species (RNS) in ALS, AD, HD and PD-associated pathophysiology (Deckel, 2001; Cacquevel, 2004; McGeer and McGeer, 2004; Sargsyanet al., 2005). Increase in prostaglandin (PGE2), a potent inflammatory mediator, and nitrite, an indirect measure of RNS production, indicates inflammation-induced neurodegeneration in ALS, AD, HD and PD patients (Milstien et al., 1994; Tohgi et al., 1999; Deckel, 2001 ;Cacquevel, 2004).
# melatonin receptors = settings: Mulchahey, et al., 2004; cited from earlier work
# [5] = 10 mg/kg i.p. 1 hr prior to open field testing
# [6] = 100 mg/kg i.p. 1 hr prior to open field testing
# [7] = 10 and 100 mg/kg i.p., P values>0.10
SMILES,"body weight (middle-aged male rats; daily treatment, middle-aged obesity, Rasmussen et al., 1999)","fat content (middle-aged male rats; middle-age obesity, as opposed to lean body mass)",headache frequency [1],headache intensity [1],body weight [2],"core symptoms of fibromyalgia (severity of pain, tender point count, patient and physician ratings) ([3]; 20 patients treated for 30 days, Citera et al., 2000)","patient-reported improvement including lack of pain and fatigue ([3]; daily treatment, end of treatment, Acuna-Castroviejo et al., 2006)",reduction in damaged cortical tissue compared to vehicle-treated TBI rats (TBI rats),side effects compared to placebo treatment (humans),reduction in brain infarct size compared to vehicle-treated IHI mice (IHI mice),rearing behavior compared to vehicle controls (male Sprague-Dawley rats; [5]),immobility compared to controls (male Sprague-Dawley rats; [5]),rearing behavior compared to vehicle controls (male Sprague-Dawley rats; [6]),immobility compared to controls (male Sprague-Dawley rats; [6]),sedative effect: quadrant crossings (male Sprague-Dawley rats; [7]),sedative effect: total mobility (male Sprague-Dawley rats; [7]),"nitrite production ([4]; P<0.01, FIG. 4)","increase in PGE2 levels ([4]; P<0.01, FIG. 5)",binding to melatonin receptors (melatonin receptors)
COc1ccc2[nH]cc(CCNC(C)=O)c2c1 [melatonin],significantly decreased,significant decrease,significant decrease,decrease,significantly decreased,Significant improvement,significant improvement,,,,,,,,,,,,
"COc1cc2c([C@@H](C)CNC(C)=O)c[nH]c2cc1Cl [β-methyl-6-chloromelatonin, (R)-N-[2-(6-chloro-5-methoxy-1H-indol-3-yl)propyl]acetamide]",,,,,,,,68%,no significant side effects,33-40%,significantly increased,significantly decreased,significantly increased,significantly decreased,no significant drug effect,no significant drug effect,blocked,blocked,high affinity
